Some test systems named below: SF-295; SNB-19; M14; OVCAR-3; SF-539; ACHN; HCT-15; HOP-62; RPMI-8226; RXF 393; NCI-H460; SK-MEL-28; SN12C; OVCAR-4; MOLT-4; SK-MEL-2; PC-3; K562; HCT-116; OVCAR-8.
Common to all, as to experiment: NCI tumour cell line growth inhibition, 48 h

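Five concentrations, 48 hours, 96-well plates. The concentration for 50% growth inhibition is given as GI50.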 The source made the active and inactive calls. Cut-off read from the data, not from the text of the source: active = GI50 up to about 1.1 µM and inactive = higher. Some results are limits rather than exact numbers.

Turning to `CC(C)(C)[Si](C)(C)OCC1OC(n2cnc3c(N)ncnc32)C(O)C1O` (stereo not given), the GI50 was > 100 µM (inactive) in the experiment with SF-295; > 100 µM (inactive) in the experiment on SNB-19; > 100 µM (inactive) in the experiment with M14; 76 µM (inactive) with OVCAR-3; > 100 µM (inactive) with SF-539; > 100 µM (inactive) with ACHN. The GI50 with HCT-15 is greater than 100 µM; in the experiment on HOP-62 it was > 100 µM (inactive); in the experiment with RPMI-8226 it was 81.3 µM (inactive); in the experiment on RXF 393, 36.7 µM (inactive); with NCI-H460 it was > 100 µM (inactive); in the experiment with SK-MEL-28, > 100 µM (inactive). Also, the GI50 in the experiment with SN12C was > 100 µM (inactive); in the experiment with OVCAR-4, > 100 µM (inactive); with MOLT-4, 39.6 µM (inactive); in the experiment on SK-MEL-2 it was > 100 µM (inactive); with PC-3, 43.5 µM (inactive); in the experiment with K562, 70.6 µM (inactive). Further, the GI50 with HCT-116 and in the experiment on OVCAR-8 was > 100 µM (inactive) in each case.

Consider `Cc1cc(C)c2c(O)cc(-c3ccc4ccccc4c3)nc2n1`, for which the GI50 with SF-295 was 16.2 µM (inactive); with SNB-19, 30.9 µM (inactive); in the experiment on M14, 17.3 µM (inactive); in the experiment with OVCAR-3 it was 32.4 µM (inactive); in the experiment with SF-539 it was 30.8 µM (inactive); with ACHN, 46 µM (inactive). Besides, the GI50 in the experiment with HCT-15 was 6.1 µM; in the experiment with HOP-62, 32.1 µM (inactive); in the experiment with RPMI-8226, 6.31 µM (inactive); in the experiment with RXF 393, 71.6 µM (inactive); in the experiment on NCI-H460, 9.84 µM (inactive); in the experiment with SK-MEL-28, > 47.4 µM (inactive). Further, the GI50 in the experiment with SN12C was 43.7 µM (inactive); in the experiment on OVCAR-4 it was 14.6 µM (inactive); in the experiment with MOLT-4, 3.66 µM (inactive); with SK-MEL-2, 13.6 µM (inactive); in the experiment with PC-3, 10.2 µM (inactive); in the experiment on K562 it was 2.05 µM (inactive). Besides, the GI50 with HCT-116 is 13.8 µM (inactive); in the experiment on OVCAR-8, 39 µM (inactive).

Regarding `C=C1C(=O)OC2CC(C)C(/C=C/C(C)=O)=CCC12` (stereo not given), the GI50 with SF-295, with SNB-19, in the experiment on M14, in the experiment with OVCAR-3, in the experiment on SF-539 and in the experiment on ACHN was > 100 µM (inactive) in each case. The GI50 is greater than 100 µM in the experiment with HCT-15; > 100 µM (inactive) in the experiment on HOP-62; 86.1 µM (inactive) in the experiment on RPMI-8226; > 100 µM (inactive) with RXF 393; > 100 µM (inactive) in the experiment with NCI-H460; > 100 µM (inactive) in the experiment with SK-MEL-28. The GI50 with SN12C was > 100 µM (inactive); in the experiment on OVCAR-4, > 100 µM (inactive); in the experiment on MOLT-4, 83 µM (inactive); in the experiment with SK-MEL-2, > 100 µM (inactive); in the experiment on PC-3, > 100 µM (inactive); in the experiment with K562 it was 58.7 µM (inactive). Further, the GI50 in the experiment on HCT-116 is 43.3 µM (inactive); in the experiment with OVCAR-8 it was > 100 µM (inactive).

As for `Cc1ccc(S(=O)(=O)NC(=O)C2=C3SCCN3C(=O)N(S(=O)(=O)c3ccc(C)cc3)C2c2ccccc2)cc1` (stereo not given), the GI50 in the experiment on SF-295 was 31.5 µM (inactive); in the experiment with SNB-19 it was 34.8 µM (inactive); in the experiment with M14 it was 61 µM (inactive); in the experiment with OVCAR-3, 20 µM (inactive); in the experiment with SF-539 it was 25.6 µM (inactive); in the experiment on ACHN, > 100 µM (inactive). Moreover, the GI50 was greater than 100 µM in the experiment with HCT-15; 59.3 µM (inactive) with HOP-62; 26.7 µM (inactive) in the experiment on RPMI-8226; 25.1 µM (inactive) with RXF 393; 71.1 µM (inactive) with NCI-H460; 50.2 µM (inactive) in the experiment with SK-MEL-28. For the same molecule, the GI50 in the experiment with SN12C is 49.9 µM (inactive); with OVCAR-4 it was 58.6 µM (inactive); in the experiment with MOLT-4 it was 44.9 µM (inactive); in the experiment on SK-MEL-2 it was 46.8 µM (inactive); with PC-3, 33.9 µM (inactive); with K562 it was 36.7 µM (inactive). The values for the GI50 in the experiment with HCT-116 and in the experiment on OVCAR-8 were 36.1 µM (inactive) and 77.1 µM (inactive), respectively.

With `O=C(CSCC(=O)N/N=C/c1cccc(OCc2ccccc2)c1)N/N=C/c1cccc(OCc2ccccc2)c1`, the GI50 in the experiment with SF-295 is 34.2 µM (inactive); in the experiment with SNB-19, 57.5 µM (inactive); with M14, 37.5 µM (inactive); with OVCAR-3, 39.5 µM (inactive); in the experiment with SF-539 it was > 100 µM (inactive); in the experiment on ACHN, 32.9 µM (inactive). Moreover, the GI50 with HCT-15 was 44.4 µM; with HOP-62 it was > 100 µM (inactive); in the experiment on RPMI-8226, 8.91 µM (inactive); in the experiment on RXF 393, > 69.7 µM (inactive); in the experiment with NCI-H460 it was 34.4 µM (inactive); with SK-MEL-28, > 100 µM (inactive). The GI50 is 35.5 µM (inactive) in the experiment on SN12C; > 76.4 µM (inactive) in the experiment with OVCAR-4; 15.5 µM (inactive) with MOLT-4; 41.3 µM (inactive) in the experiment with SK-MEL-2; 20 µM (inactive) in the experiment on PC-3; 22.3 µM (inactive) in the experiment on K562. The GI50 was 26.8 µM (inactive) with HCT-116 and 32.2 µM (inactive) in the experiment with OVCAR-8.

Consider `CC1=NN(c2ccccc2)C(=O)C1C(=O)C(=O)Nc1ccc(C)cc1C` (stereo not given), for which the GI50 in the experiment with SF-295, with SNB-19, in the experiment with M14, in the experiment with OVCAR-3, in the experiment with SF-539 and in the experiment on ACHN was > 100 µM (inactive) throughout. Further, the GI50 in the experiment on HCT-15 is greater than 100 µM; in the experiment with HOP-62, > 100 µM (inactive); in the experiment on RPMI-8226, > 100 µM (inactive); with RXF 393 it was > 100 µM (inactive); with NCI-H460, > 100 µM (inactive); in the experiment on SK-MEL-28, > 100 µM (inactive). The GI50 in the experiment with SN12C, in the experiment on OVCAR-4, in the experiment with MOLT-4, in the experiment on SK-MEL-2, in the experiment with PC-3 and with K562 was > 100 µM (inactive) throughout. In addition, the GI50 in the experiment with HCT-116 and in the experiment on OVCAR-8 was > 100 µM (inactive) throughout.

Consider `CCCCn1c2c(n(CCCC)c1=S)-c1c(n(CCCC)c(=S)n1CCCC)SSc1c(n(CCCC)c(=S)n1CCCC)-c1c(n(CCCC)c(=S)n1CCCC)SSc1c(n(CCCC)c(=S)n1CCCC)-c1c(n(CCCC)c(=S)n1CCCC)SS2`, for which the GI50 with SF-295 is 10.4 µM (inactive); in the experiment on SNB-19, 11.4 µM (inactive); with M14 it was 13.4 µM (inactive); with OVCAR-3, 1.87 µM (inactive); in the experiment on SF-539 it was 4.31 µM (inactive); in the experiment with ACHN, 2.36 µM (inactive). Also, the GI50 in the experiment with HCT-15 is 7.64 µM; with HOP-62, 15.2 µM (inactive); in the experiment with RPMI-8226, 1.99 µM (inactive); with RXF 393 it was 2.72 µM (inactive); with NCI-H460, > 31 µM (inactive); in the experiment with SK-MEL-28 it was 13.6 µM (inactive). Moreover, the GI50 was 2.8 µM (inactive) in the experiment on SN12C; 1.73 µM (inactive) in the experiment on OVCAR-4; 2.32 µM (inactive) in the experiment on MOLT-4; 10.7 µM (inactive) in the experiment with SK-MEL-2; 2.04 µM (inactive) with PC-3; 2.03 µM (inactive) with K562. In addition, the GI50 is 4.72 µM (inactive) in the experiment with HCT-116 and 1.77 µM (inactive) in the experiment with OVCAR-8.

For `CCCCCNC(=O)c1cc2cc(CCl)ccc2oc1=O`, the GI50 is 6.56 µM (inactive) in the experiment on SF-295; 15.9 µM (inactive) in the experiment with SNB-19; 9.12 µM (inactive) with M14; 8.02 µM (inactive) with OVCAR-3; 2.67 µM (inactive) with SF-539; 2.01 µM (inactive) in the experiment on ACHN. Also, the GI50 is 1.95 µM in the experiment with HCT-15; 5.69 µM (inactive) in the experiment on HOP-62; 10 µM (inactive) in the experiment on RPMI-8226; 0.798 µM (active) in the experiment with RXF 393; 1.61 µM (inactive) in the experiment with NCI-H460; 9.42 µM (inactive) in the experiment on SK-MEL-28. The GI50 in the experiment with SN12C is 1.72 µM (inactive); in the experiment with OVCAR-4, 7.23 µM (inactive); in the experiment on MOLT-4, 6.68 µM (inactive); in the experiment with SK-MEL-2 it was 3.1 µM (inactive); in the experiment with PC-3, 1.33 µM (inactive); in the experiment on K562, 5.62 µM (inactive). In addition, the results for the GI50 in the experiment with HCT-116 and in the experiment with OVCAR-8 were 3.84 µM (inactive) and 35.7 µM (inactive), respectively.

Regarding `Cc1nc(N)nc(S)c1CCCNc1ccccc1`, the GI50 was 56.4 µM (inactive) with SF-295; 89.7 µM (inactive) with SNB-19; 52.4 µM (inactive) in the experiment with M14; > 100 µM (inactive) with OVCAR-3; 95.7 µM (inactive) in the experiment on SF-539; 90.2 µM (inactive) in the experiment on ACHN. For the same molecule, the GI50 with HCT-15 is greater than 100 µM; in the experiment with HOP-62, > 100 µM (inactive); in the experiment on RPMI-8226 it was 27.2 µM (inactive); with RXF 393 it was > 100 µM (inactive); in the experiment with NCI-H460, 35 µM (inactive); in the experiment with SK-MEL-28, > 100 µM (inactive). Besides, the GI50 in the experiment on SN12C was 69.7 µM (inactive); in the experiment with OVCAR-4, > 100 µM (inactive); in the experiment with MOLT-4, 3.21 µM (inactive); in the experiment with SK-MEL-2, 60.1 µM (inactive); with PC-3, 61.2 µM (inactive); in the experiment with K562, 2.36 µM (inactive). The figures for the GI50 in the experiment with HCT-116 and in the experiment with OVCAR-8 were 79.6 µM (inactive) and 20.5 µM (inactive), respectively.

The values are drawn from ChEMBL document CHEMBL1201862, “PubChem BioAssay data set” (2004).
